Read-outs that look alike come from different tables or passages of the source.
Columns and labels:
[1] = system: pentobarbital-anesthetized dog; test: In Vivo Myocardial Inotropic Activity in Anesthetized Dog (CVAD); parameters: species or system dog (adult mongrel); settings: for change in vivo at 0.1 mg/kg / change in vivo at 0.31 mg/kg / change in vivo at 1 mg/kg / change in vivo at 3.1 mg/kg / change in vivo at 0.3 mg/kg / change in vivo at 10 mg/kg: Canis lupus familiaris, iv; for change in vivo at 0.31 mg/kg: 0.31 mg/kg IV; for change in vivo at 1 mg/kg: 1.00 mg/kg IV; for change in vivo at 3.1 mg/kg: 3.10 mg/kg IV; for change in vivo at 0.3 mg/kg: 0.30 mg/kg IV; for change in vivo at 10 mg/kg: 10.00 mg/kg IV
Protocol: This test procedure is described in the following paragraphs.
This screen consists of determining the effects of increasing intravenous doses of compound on mycardial contractility (dP/dt max of left ventricular blood pressure), heart rate, and aortic blood pressure of the pentobarbital-anesthetized dog.
Adult mongrel dogs of either sex are anesthetized with pentobarbital, 35 mg/kg, IV, and are subsequently maintained under anesthesia with a continuous infusion of pentobarbital, 3.5 mg/kg/hour. The trachea is intubated but the animals are permitted to breathe spontaneously. A cannula is inserted into the femoral vein for administrating test agents. A Millar catheter tip pressure transducer or a fluid filled catheter is inserted into the ascending aorta via the femoral artery for measuring aortic blood pressure. A Millar catheter tip pressure transducer is passed into the left ventricle via the left carotid artery for measuring left ventricular blood pressure. Needle electrodes are placed subcutaneously for recording a lead II electrocardiogram (ECG).
Left ventricular and aortic blood pressures are recorded on a strip chart recorder. Heart rate, using a biotachometer triggered from the R wave of the ECG, and the first derivative of left ventricular blood pressure (dP/dt), obtained with a differentiator amplifier coupled to the corresponding pressure amplifier, are also recorded. A period of at least 30 minutes is utilized to obtain control data prior to administration of test compound.
Ethanol or dimethylacetamide can be used as solvents if adequate dilutions can be made. Appropriate vehicle controls are administered when needed.
Each dose of the test compound is administered in a volume of […] over a period of one minute.

[2] = system: Type 3 Phosphodiesterase; test: Phosphodiesterase (PDE) Inhibition, Type 3 Phosphodiesterase; type: biochemical, bovine (coronary arteries); settings: Type 3 PDE, at 10^-5 M, substrate 3H-cAMP 1.0 μM
From the text: (§1) The method of Thompson, et al (Thompson, W. J., Terasaki, W. L., Epstein, P. M., Strada, S. J., Adv. Cyclic Nucleotide Res., 10:69-92, 1979), with minor modifications, was used to isolate phosphodiesterases from vascular smooth muscle. Bovine coronary arteries (right, anterior descending, and left circumflex arteries) from hearts obtained from a local slaughterhouse were used for these studies. Arteries from two hearts were used for each isolation. Hearts were kept on ice and the arteries were dissected within two hours after the animals were sacrificed. After removing all fat and connective tissue, the arteries were everted, cut into cubes with a single edge razor blade and homogenized with a Brinkman Polytron three times at a rheostat setting of 10.0 in four volumes of the PDE isolation buffer (10 mM Tris-HCl/pH 7.5, 2 mM MgCl2, and 1 mM dithiothreitol). The resulting homogenate was sonicated (30 sec/ml homogenate) and then centrifuged at 30,000 xg for 20 minutes. This and all subsequent procedures were performed at 4° C. The resulting supernatant was filtered through four layers of gauze, and applied to a DEAE-cellulose column (30×1.5 cm), prepared as described by Cheung (Cheung, W. Y., Biochim. Biophys. Acta, 191:303-315, 1969), and equilibrated with freshly prepared 70 mM sodium acetate/5 mM 2-mercaptoethanol (pH 6.5). The column was then washed with 2-3 bed volumes of sodium acetate/2-mercaptoethanol, after which the phosphodiesterases were eluted from the column using a continuous 70-1,000 mM sodium acetate gradient (pH 6.5, containing 5 mM 2-mercaptoethanol; total volume 400 ml). The flow rate was approximately equal to 25 ml/hr. Eight ml fractions were collected and assayed for cyclic AMP- and cyclic GMP-phosphodiesterase activity in the presence and absence of 0.1 units of calmodulin and 10 mM CaCl2. Appropriate fractions were pooled and dialyzed against 70 mM sodium acetate/5 mM 2-mercaptoethanol for 20 hours.
(§2) Following complete separation, the combined phosphodiesterase fractions were concentrated to 14% of the original volume using an Amicon ultrafiltration cell fitted with a UM-10 membrane, according to the method of Wells, et al (Wells, J. N., Baird, C. E., Wu, Y. J., Hardman, J. G., Biochim. Biophys. Acta, 384:430-442, 1975). Following concentration, the protein was then diluted to 65% with ethylene glycol monoethyl ether, and stored at -20° C.
(§3) Phosphodiesterase activity was measured as described previously (Weishaar, P. E., Quade, M., Boyd, D., Schenden, J., Mark, S. S., Kaplan, H. R., Drug Devel. Res., 3:517-534, 1983), in a reaction medium containing 40 mM Tris-HCl (pH 8.0), 5 mM MgCl and 4 mM 2-mercaptoethanol. Unless otherwise noted, the concentration of substrate (^3 H-cyclic AMP or ^3 H-cyclic GMP) was 1.0 μM. All agents examined were dissolved in dimethyl sulfoxide (DMSO). Final concentration of the reaction medium was either 2.5% (cardiac and platelet studies) or 1.25% (smooth muscle studies). This concentration of DMSO produced an approximately 10% inhibition of enzyme activity.

[3] = biological target: T1, adenosine A1 receptor (Rattus norvegicus, UniProt P25099); test: Adenosine Receptor Binding - A1 Receptor Affinity (RBA1), [3H]-N6-cyclohexyladenosine displacement; settings: [3H]-CHA 1.0 nM, rat brain membranes, 25° C., one hour; read-out: RBA-1, IC50 for adenosine A1 receptor affinity
T1 construct: Whole brain minus cerebellum and brainstem from male Long Evans rats; from tissue; host or cells: whole brain minus cerebellum and brainstem, male Long Evans rats (membranes)
T1 sequence (P25099 1-326): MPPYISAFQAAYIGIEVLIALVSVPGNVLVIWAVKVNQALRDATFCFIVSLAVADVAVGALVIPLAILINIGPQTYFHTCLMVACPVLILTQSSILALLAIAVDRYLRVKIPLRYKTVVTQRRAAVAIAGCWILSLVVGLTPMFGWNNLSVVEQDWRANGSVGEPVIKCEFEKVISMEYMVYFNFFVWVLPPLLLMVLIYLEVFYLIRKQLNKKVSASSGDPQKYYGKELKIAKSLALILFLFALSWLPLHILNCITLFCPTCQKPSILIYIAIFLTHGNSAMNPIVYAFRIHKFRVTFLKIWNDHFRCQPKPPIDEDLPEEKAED
Protocol: Whole brain minus cerebellum and brainstem from male Long Evans rats (150-200 g) was homogenized in 30 volumes of ice-cold 0.05M Tris-HCl buffer pH 7.7 using a Brinkman Polytron PT-10, (setting number 6 for 20 seconds) and centrifuged for ten minutes at 20,000×g (Sorvall RC-2), 4° C. The supernatant was discarded, and the pellet was resuspended and centrifuged as before. […] The homogenate was again centrifuged, and the final pellet was resuspended in ice-cold 0.05 M Tris-HCl buffer pH 7.7 to a concentration of 20 mg/ml original wet tissue weight and used immediately. […] Incubation volume was 2 ml. […] The filters were rinsed three times with 5 ml of ice cold 0.05 M Tris-HCl buffer pH 7.7. The radio-labeled ligand retained on the filter was measured by liquid scintillation spectrophotometry after shaking the filters for one hour or longer on a mechanical shaker in 10 ml of Beckman Ready-Solv HP scintillation cocktail. […] The Hill coefficient was calculated by linear regression of the line obtained by plotting the log of the bound radioligand vs the log of the [formula] The maximal number of binding sites (Bmax) was calculated from the Scatchard plot.

[4] = system: Type 1 Phosphodiesterase; test: Phosphodiesterase (PDE) Inhibition, Type 1 Phosphodiesterase; type: biochemical, bovine (coronary arteries); settings: Type 1 PDE, at 10^-5 M; for % Inhibition of hydrolysis of 3H-cAMP: substrate 3H-cAMP 1.0 μM; for % Inhibition of hydrolysis of 3H-cGMP: substrate 3H-cGMP 1.0 μM
From the text: as §1, §2, §3

[5] = 0.10 mg/kg IV, read-out: Percent Change Heart Rate
[6] = 0.10 mg/kg IV, read-out: Percent Change Myocardial Contractility
[7] = read-out: Percent Change Heart Rate
[8] = read-out: Percent Change Myocardial Contractility
[9] = 0.10 mg/kg IV, read-out: Percent Change Blood Pressure
[10] = read-out: Percent Change Blood Pressure
[11] = intravenously at about 0.01 to 0.31 mg/kg

SMILES	change in vivo at 0.1 mg/kg [1, 5] [%]	change in vivo at 0.1 mg/kg [1, 6] [%]	change in vivo at 0.31 mg/kg [1, 7] [%]	change in vivo at 0.31 mg/kg [1, 8] [%]	change in vivo at 1 mg/kg [1, 7] [%]	change in vivo at 1 mg/kg [1, 8] [%]	change in vivo at 3.1 mg/kg [1, 7] [%]	change in vivo at 3.1 mg/kg [1, 8] [%]	% Inhibition of hydrolysis of 3H-cAMP [2] [%]	IC50 [3] [nM]	% Inhibition of hydrolysis of 3H-cAMP [4] [%]	% Inhibition of hydrolysis of 3H-cGMP [4] [%]	change in vivo at 0.1 mg/kg [1, 9] [%]	change in vivo at 1 mg/kg [1, 10] [%]	change in vivo at 3.1 mg/kg [1, 10] [%]	change in vivo at 10 mg/kg [1, 8] [%]	further results
Cc1nn(C)c2c(=O)[nH]c(-c3ccccc3)nc12 [Example 6, 1,3-Dimethyl-5-phenylpyrazolo[4,3-d]pyrimidine-7-one]	-1	4	-4	3	7	20	37	45	35	1020	6	14	–	–	–	–	–
Cc1nn(C)c2c(=O)[nH]c(-c3cccnc3)nc12 [Example 4, 1,3-Dimethyl-5-(3-pyridyl)pyrazolo[4,3-d]pyrimidine-7-one]	0	2	1	7	4	27	9	55	3	3090	6	4	–	–	–	–	Percent Change Blood Pressure ([1]; 0.10 mg/kg IV): 0/0
Cc1ccc(-c2nc3c(C)nn(C)c3c(=O)[nH]2)cc1 [Example 8, 1,3-Dimethyl-5-(4-methylphenyl)pyrazolo[4,3-d]pyrimidine-7-one]	5	7	–	–	6	20	10	22	15	417	14	15	-1	3	3	82	change in vivo at 0.3 mg/kg [1, 10]: 0%; change in vivo at 0.3 mg/kg [1, 7]: 5%; change in vivo at 0.3 mg/kg [1, 8]: 10%
Cc1nn(C)c2c(=O)[nH]c(Cc3ccccc3)nc12 [Example 1, 1,3-Dimethyl-5-benzylpyrazolo[4,3-d]pyrimidine-7-one]	2	8	3	12	6	23	14	42	23	13100	80	71	–	–	–	95	change in vivo at 10 mg/kg [1, 7]: 38%; blood pressure (in words) [1, 11]: a moderate reduction in blood pressure; cardiac contractility (in words) [1, 11]: dose related significant increases in cardiac contractility; heart rate (in words) [1, 11]: only low or minimal changes in heart rate
CCn1nc(C)c2nc(-c3ccccc3)[nH]c(=O)c21 [Example 5, 1-Ethyl-3-methyl-5-phenylpyrazolo[4,3-d]pyrimidine-7-one]	7	10	–	–	43	77	50	100	56	670	29	29	2	1	1	–	–
Cc1nn(C)c2c(=O)[nH]c(-c3ccc([N+](=O)[O-])cc3)nc12 [Example 9, 1,3-Dimethyl-5-(4-nitrophenyl)pyrazolo[4,3-d]pyrimidine-7-one]	1	4	0	5	-3	4	1	2	1	880	16	6	–	–	–	–	–
